From patent US7524980B2, “Vitamin D3 lactam derivative” (Teijin Pharma Limited, priority 2003, dated 2009)

Tested on: HL-60 cell
Test: Vitamin D3 antagonist effect: suppression of HL-60 cell differentiation (NBT-reducing activity) induced by 1α,25-dihydroxyvitamin D3
Assay type: cell-based
Conditions: simultaneous treatment with 1α,25-dihydroxyvitamin D3 1×10^−8 M; compound 1×10^−7 to 3×10^−6 M; 4 days; read-out: IC50 (suppression of NBT-reducing activity induction)
Excerpt: (1) HL-60 cell line which had been purchased from a cell bank (Japanese Cancer Research Resource Bank, Cell No: JCRB0085) was used. The cell line was stored as a frozen storage stock to prevent cell characteristic changes attributable to successive cultivations. Prior to the initiation of experiments, the cells were defrosted and successive culturing was stared. For the experiments, cells whose successive culturing was from one month to about a half year were used. The successive culturing was carried out by centrifugally collecting cells which were in the state of suspension culture, and diluting the collected cell concentrate with a fresh culture medium at a ratio of about 1/100 (1-2×10^4 cells/ml). As the culture medium, an RPMI-1640 medium containing 10% fetal bovine serum was used.
(2) The cells which were under successive culturing in the above process (1) were centrifugally collected, and they were dispersed in a culture medium at the cell concentration of 2×10^4 cells/ml. […]
(3) As the parameter of differentiation inducing effect on HL-60 cells, the induction of nitro blue tetrazolium (henceforth, NBT)-reducing activity was used. The NBT-reducing activity was determined according to the following procedure. […] After air drying, it was stained with Kernechrot, and the ratio of the positive cells of NBT reduction activity was determined under an optical microscope. […]

## C=C1C(=CC=C2CCCC3(C)C2CCC3C(C)CC2CC(C)(O)C(=O)N2CCc2ccccc2)CC(O)CC1O (stereo not drawn) [Compound No. 61a, 1α,25-dihydroxyvitamin D3-26,23-lactam-N-(2-phenethyl)]
  IC50: < 0.1 µM
